Paper PMC12209991 (Clinical Pharmacology in Drug Development, 2025)
Read-outs that look alike come from different tables or passages of the source.

Key:
CYP3A4 [1] = tested on: CYP3A4
CYP3A4 [2] = assay: clinical; details: human, in vivo, po; for AUC(0-inf): AUCinf; for AUC(0-inf) / AUC(0-t) / Cmax: N=12; for AUC(0-t): AUClast
[3] = midazolam with RBN-3143 / without RBN-3143 (300 mg BID for 14 days)
[4] = midazolam with RBN-3143 / without RBN-3143 (300 mg BID for 14 days), listed as midazolam
[5] = 2 mg, GLSM, midazolam 2 mg single oral dose without RBN-3143 (day 1)
[6] = 2 mg, geometric mean (Geo CV%), midazolam 2 mg single oral dose without RBN-3143 (day 1)
[7] = 2 mg, mean (SD), midazolam 2 mg single oral dose without RBN-3143 (day 1)
[8] = GLSM, midazolam 2 mg single oral dose with RBN-3143 300 mg BID at steady state (day 16)
[9] = geometric mean (Geo CV%), midazolam 2 mg single oral dose with RBN-3143 300 mg BID at steady state (day 16)
[10] = mean (SD), midazolam 2 mg single oral dose with RBN-3143 300 mg BID at steady state (day 16)

Which results are given for `Cc1ncc2n1-c1ccc(Cl)cc1C(c1ccccc1F)=NC2` [Midazolam, midazolam]?
subjects with decreased exposure to oral midazolam (CYP3A4 [1]; after RBN-3143 300 mg BID to steady-state): 9/12; increase of midazolam Cmax in 1 subject against the trend (CYP3A4 [1]; in the presence of RBN-3143): 3 fold; subjects showing increased midazolam AUCinf (CYP3A4 [1]; in the presence of RBN-3143): 3 subjects out of 12; subjects showing increased midazolam Cmax (CYP3A4 [1]; in the presence of RBN-3143): 2 subjects out of 12; AUCinf GLSM ratio (90% CI) (CYP3A4 [1]; [3]): … … 0.88 (0.76, 1.01); AUClast GLSM ratio (90% CI) (CYP3A4 [1]; [3]): … … 0.87 (0.75, 1.01); Cmax GLSM ratio (90% CI) (CYP3A4 [1]; [3]): … … 0.92 (0.74, 1.16); AUCinf GLSM ratio (90% CI) (CYP3A4 [1]; [4]): 0.88; Cmax GLSM ratio (90% CI) (CYP3A4 [1]; [4]): 0.92; AUC(0-inf) (CYP3A4 [2]; [5]): 0.0208 µg·h/mL; AUC(0-inf) (CYP3A4 [2]; [6]): 0.0208 µg·h/mL; AUC(0-inf) (CYP3A4 [2]; [7]): 0.0222 µg·h/mL; AUC(0-t) (CYP3A4 [2]; [5]): 0.0198 µg·h/mL; AUC(0-t) (CYP3A4 [2]; [6]): 0.0198 µg·h/mL; AUC(0-t) (CYP3A4 [2]; [7]): 0.0212 µg·h/mL; Cmax (CYP3A4 [2]; [5]): 9.88 ng/mL; Cmax (CYP3A4 [2]; [6]): 9.87 ng/mL; Cmax (CYP3A4 [2]; [7]): 10.3 ng/mL; half-life (CYP3A4 [2]; 2 mg, t1/2, geometric mean (Geo CV%), midazolam 2 mg single oral dose without RBN-3143 (day 1)): 3.05 h; half-life (CYP3A4 [2]; 2 mg, t1/2, mean (SD), midazolam 2 mg single oral dose without RBN-3143 (day 1)): 3.29 h; AUC(0-inf) (CYP3A4 [2]; [8]): 0.0183 µg·h/mL; AUC(0-inf) (CYP3A4 [2]; [9]): 0.0183 µg·h/mL; AUC(0-inf) (CYP3A4 [2]; [10]): 0.0199 µg·h/mL; AUC(0-t) (CYP3A4 [2]; [8]): 0.0172 µg·h/mL; AUC(0-t) (CYP3A4 [2]; [9]): 0.0172 µg·h/mL; AUC(0-t) (CYP3A4 [2]; [10]): 0.0186 µg·h/mL; Cmax (CYP3A4 [2]; [8]): 9.11 ng/mL; Cmax (CYP3A4 [2]; [9]): 9.11 ng/mL; Cmax (CYP3A4 [2]; [10]): 9.76 ng/mL; half-life (CYP3A4 [2]; t1/2, geometric mean (Geo CV%), midazolam 2 mg single oral dose with RBN-3143 300 mg BID at steady state (day 16)): 3.09 h; half-life (CYP3A4 [2]; t1/2, mean (SD), midazolam 2 mg single oral dose with RBN-3143 300 mg BID at steady state (day 16)): 3.49 h
